Here are results for 14 compounds from patent US11071731B2, “Allosteric modulators of the mu opioid receptor” (Chiromics, LLC, priority 2017, dated 2021).

Molecules are shown by their SMILES. Some results are limits rather than exact numbers.

In assay [1] the target is T1, mu opioid receptor (MOR) (Homo sapiens, UniProt P35372). The assay is described as follows: Hit Hunter cAMP signaling assay (adenylyl cyclase inhibition), PAM mode with EC20 endomorphin-1. The format is cell-based.
Assay [2] concerns the target T1, mu opioid receptor (MOR). The assay is described as follows: PathHunter β-arrestin recruitment assay, PAM mode with EC20 endomorphin-1. The format is cell-based. The essentials:
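β-Arrestin recruitment to the receptor was tracked by chemiluminescent β-galactosidase activity from complementing fragments (ED on receptor, EA on β-arrestin). Per-compound outputs were EC50 and percent maximal response.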
A general note: Activated receptors often draw arrestin, which recruitment assays turn into a signal.

The mark [3] stands for this setting: cAMP EC50, adenylyl cyclase inhibition.
The mark [4] stands for this setting: maximal response for adenylyl cyclase inhibition.
The mark [5] stands for this setting: maximal response for β-arrestin recruitment.
The mark [6] stands for this setting: β-arrestin recruitment, read-out: β-arr. EC50.
[7] abbreviates: adenylyl cyclase inhibition, read-out: cAMP EC50.

T1 sequence (P35372 whole entry): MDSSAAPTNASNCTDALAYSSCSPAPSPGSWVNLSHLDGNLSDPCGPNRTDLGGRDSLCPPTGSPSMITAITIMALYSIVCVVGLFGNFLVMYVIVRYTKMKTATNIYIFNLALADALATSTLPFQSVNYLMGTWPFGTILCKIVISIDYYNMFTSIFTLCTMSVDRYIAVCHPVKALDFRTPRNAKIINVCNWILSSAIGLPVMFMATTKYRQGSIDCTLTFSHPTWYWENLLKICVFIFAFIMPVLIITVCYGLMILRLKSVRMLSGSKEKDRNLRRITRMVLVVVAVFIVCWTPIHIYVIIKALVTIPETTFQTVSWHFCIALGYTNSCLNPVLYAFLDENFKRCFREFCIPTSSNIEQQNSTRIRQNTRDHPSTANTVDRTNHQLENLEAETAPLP

For `COc1ccc(C2CCCCN2Cc2cccc(Cl)c2F)cc1Br` (stereo not shown) [compound 245], the EC50 in assay [1] (setting [3]) and in assay [2] (setting [6]) was greater than 2100 nM throughout. For the same compound, in assay [1] (setting [4]), the “cAMP Max. Resp.” value is listed as “D (D represents a maximal response of < 40%)”. The “β-arr Max. Resp.” value in assay [2] (setting [5]) is “D (D represents a maximal response of < 40%)”.
For the compound `Fc1cnc(Cl)nc1N1CCCCC1c1cccc(C(F)(F)F)c1` (stereo not shown) [compound 7], the EC50 in assay [1] (setting [3]) and in assay [2] (setting [6]) was less than 700 nM in each case. Also, the “cAMP Max. Resp.” value in assay [1] (setting [4]) is “F (F represents a maximal response of > 60%)”. In assay [2] (setting [5]), the “β-arr Max. Resp.” value is “F (F represents a maximal response of > 60%)”.
As to `Fc1ccc(C2C3CCC(C3)N2Cc2cc(Cl)ccc2F)cc1Cl` (stereo not shown) [compound 217], the EC50 (as a rule, the concentration that produces a half-maximal response) in assay [1] was greater than 2100 nM; in assay [2] (β-arr. EC50, β-arrestin recruitment), 700 to 2100 nM. In addition, the “cAMP Max. Resp.” value in assay [1] (setting [4]) was “D (D represents a maximal response of < 40%)”. For the same compound, in assay [2] (setting [5]), the “β-arr Max. Resp.” value is on record as “F (F represents a maximal response of > 60%)”.
Turning to `CC1CCN(S(=O)(=O)c2ccc(Cl)cc2)C1c1cccc(Cl)c1` (stereo not shown) [Compound 107], the EC50 in assay [1] (setting [7]) and in assay [2] (setting [6]) was greater than 2100 nM each time. Besides, the “cAMP Max. Resp.” value in assay [1] (setting [4]) was “D (D represents a maximal response of < 40%)”. In assay [2] (setting [5]), the “β-arr Max. Resp.” value is on record as “F (F represents a maximal response of > 60%)”.
For `Cc1cc(C2CCCCN2S(=O)(=O)c2ccc(Cl)cc2)ccc1F` (racemic) [compound 67], the figures for the EC50 in assay [1] (setting [7]) and in assay [2] (setting [6]) were 700 to 2100 nM and greater than 2100 nM, respectively. Also, the “cAMP Max. Resp.” value in assay [1] (setting [4]) was “E (E represents a maximal response of 40-60%)”. Moreover, the “β-arr Max. Resp.” value in assay [2] (setting [5]) is given as “F (F represents a maximal response of > 60%)”.
Regarding `[N-]=[N+]=Nc1ccc(N2CCCCC2c2ccc(F)c(Cl)c2)cc1` (stereo not shown) [compound 462], the EC50 in assay [1] (setting [3]) and in assay [2] (setting [6]) was greater than 2100 nM throughout. In assay [1] (maximal response, adenylyl cyclase inhibition), the “cAMP Max. Resp.” value is reported as “D (D represents a maximal response of < 40%)”. Moreover, the “β-arr Max. Resp.” value in assay [2] (maximal response, β-arrestin recruitment) was “E (E represents a maximal response of 40-60%)”.
As for `CC1CCN(S(=O)(=O)c2ccc(Cl)cc2)C1c1ccc(F)c(Br)c1` (stereo not shown) [Compound 106], the EC50 in assay [1] (setting [7]) is less than 700 nM; in assay [2] (setting [6]) it was 700 to 2100 nM. Also, the “cAMP Max. Resp.” value in assay [1] (setting [4]) was “D (D represents a maximal response of < 40%)”. In addition, the “β-arr Max. Resp.” value in assay [2] (setting [5]) is reported as “F (F represents a maximal response of > 60%)”.
For `CC[C@@H]1CCCN(c2nc(Cl)ncc2F)[C@@H]1c1ccc(OC)c(Br)c1` (relative stereo) [compound 250], the EC50 in assay [1] (setting [3]) and in assay [2] (setting [6]) was greater than 2100 nM each time. In addition, the “cAMP Max. Resp.” value in assay [1] (setting [4]) is given as “D (D represents a maximal response of < 40%)”. Also, the “β-arr Max. Resp.” value in assay [2] (setting [5]) was “F (F represents a maximal response of > 60%)”.
In the case of `Fc1cnc(Cl)nc1N1CCCCC1c1cc(Cl)cnc1F` (stereo not shown) [compound 390], the EC50 in assay [1] (setting [3]) and in assay [2] (setting [6]) was less than 700 nM each time. The “cAMP Max. Resp.” value in assay [1] (setting [4]) is given as “D (D represents a maximal response of < 40%)”. Moreover, the “β-arr Max. Resp.” value in assay [2] (setting [5]) is “D (D represents a maximal response of < 40%)”.
With `COc1ncc(F)c(N2CCCCC2c2cccc(C(F)(F)F)c2)n1` (stereo not shown) [compound 271], the EC50 was 700 to 2100 nM in assay [1] (setting [3]) and greater than 2100 nM in assay [2] (setting [6]). In assay [1] (setting [4]), the “cAMP Max. Resp.” value was “E (E represents a maximal response of 40-60%)”. Also, the “β-arr Max. Resp.” value in assay [2] (setting [5]) was “F (F represents a maximal response of > 60%)”.
In assay [1], `Fc1ccc(C2CCCCN2c2nc(Cl)ncc2F)cn1` (stereo not shown) [compound 297] showed an EC50 greater than 2100 nM. Besides, the “cAMP Max. Resp.” value in assay [1] (setting [4]) is “E (E represents a maximal response of 40-60%)”. For the same compound, the “β-arr Max. Resp.” value in assay [2] (setting [5]) is “E (E represents a maximal response of 40-60%)”.
For `Fc1ccc(C2CCCCN2Cc2cc(Cl)ccn2)cc1Cl` (stereo not shown) [compound 145], the EC50 in assay [1] (setting [3]) is 700 to 2100 nM; in assay [2] (setting [6]), greater than 2100 nM. Moreover, in assay [1] (setting [4]), the “cAMP Max. Resp.” value is “E (E represents a maximal response of 40-60%)”. The “β-arr Max. Resp.” value in assay [2] (setting [5]) was “F (F represents a maximal response of > 60%)”.
Regarding `Fc1ccc(C2CC=CCN2c2nc(Cl)ncc2F)cc1Br` (stereo not shown) [compound 244], the EC50 in assay [1] (setting [7]) and in assay [2] (setting [6]) was less than 700 nM each time. Further, in assay [1] (setting [4]), the “cAMP Max. Resp.” value is listed as “D (D represents a maximal response of < 40%)”. For the same compound, the “β-arr Max. Resp.” value in assay [2] (setting [5]) is reported as “F (F represents a maximal response of > 60%)”.
Consider `FC(F)(F)c1cccc(C2CCCCN2Cc2cc(Cl)cc(Cl)c2)n1` (stereo not shown) [compound 159], for which the EC50 in assay [1] (setting [3]) and in assay [2] (setting [6]) was 700 to 2100 nM in each case. In addition, the “cAMP Max. Resp.” value in assay [1] (setting [4]) is on record as “E (E represents a maximal response of 40-60%)”. In addition, the “β-arr Max. Resp.” value in assay [2] (setting [5]) is “F (F represents a maximal response of > 60%)”.
